Assay results from ChEMBL document CHEMBL5335812, “PSMA-targeted SMART molecules outfitted with SN38” (Bioorg Med Chem Lett, 2024).
Blank lines part the entries; values can stand above or below the molecule they belong to. The source made the active and inactive calls. No cut-off for these calls is given here.

Key:
[1] = Drug metabolism in human C4-2B cells expressing PSMA assessed as payload release incubated for 30 min by confocal microscopy; format: ADME, cell-based; conditions: lncap c4-2b, 0.5 h
[2] = Drug metabolism in human PC-3 cells with PSMA knockout assessed as intracellular SN38 release incubated for 30 min by confocal microscopy; format: ADME, cell-based; conditions: pc-3, 0.5 h
LNCaP C4-2B = assay: Antiproliferative activity against human C4-2B cells expressing PSMA assessed as reduction in cell viability incubated for 72 hrs by cellTiter-Glo Luminescent cell viability assay
PC-3 = assay: Antiproliferative activity against human PC-3 cells with PSMA knockout assessed as reduction in cell viability incubated for 72 hrs by cellTiter-Glo Luminescent cell viability assay; format: functional, cell-based
[3] = Stability of the compound assessed as kinetic half life at pH 4.5; format: physicochemical; conditions: buffer
[4] = Stability of the compound assessed as hydrolysis at pH 7.4 measured after 8 hrs by 31P NMR; format: physicochemical; conditions: buffer, pH 7.4, 8 h
[5] = Stability of the compound assessed as kinetic half life at pH 5; format: physicochemical; conditions: buffer
[6] = Stability of the compound assessed as kinetic half life at pH 5.5; format: physicochemical; conditions: buffer
[7] = Stability of the compound assessed as kinetic half life at pH 6; format: physicochemical; conditions: buffer
[8] = Stability of the compound at pH 7.4; format: physicochemical; conditions: buffer
[9] = Stability of the compound assessed as payload release at pH 7.4 measured after 18 hrs by fluorescence based analysis; format: physicochemical; conditions: buffer, pH 7.4, 18 h
[10] = Stability of the compound assessed as payload release at pH 5.0 measured after 18 hrs by fluorescence based analysis; format: physicochemical; conditions: buffer, pH 5, 18 h
[11] = Stability of the compound assessed as payload release at pH 5.5 measured after 18 hrs by fluorescence based analysis; format: physicochemical; conditions: buffer, pH 5.5, 18 h

Structure (SMILES): CCc1c2c(nc3ccc(OC(=O)N(C)CCN(C)P(=O)(O)OCC[C@H](NC(=O)c4ccc(Cn5nnc6c5-c5ccccc5CN(C(=O)CCC(=O)NCCOCCOCCOCCOCCC(=O)NCCCCCC(=O)N[C@@H](CCC(=O)N[C@@H](CCCOP(=O)(O)N[C@@H](CCC(=O)O)C(=O)O)C(=O)O)C(=O)O)c5ccccc5-6)cc4)C(=O)O)cc13)-c1cc3c(c(=O)n1C2)COC(=O)[C@]3(O)CC
Drug metabolism [1]: Metabolite_Detected
Drug metabolism [2]: Metabolite_Notdetected
IC50 (LNCaP C4-2B): 3 nM
Activity (PC-3): inactive

Structure (SMILES): CCc1c2c(nc3ccc(OC(=O)N(C)CCN(C)P(=O)(O)OCC[C@H](NC(=O)c4ccc(CN=[N+]=[N-])cc4)C(=O)O)cc13)-c1cc3c(c(=O)n1C2)COC(=O)[C@]3(O)CC
half-life [3]: 1.9 h
Stability [4]: Stable
half-life [5]: 4.3 h
half-life [6]: 11 h
half-life [7]: 42 h
Stability [8]: Stable

Stability [9]: Stable
Activity [10]: 25%
Activity [11]: ~ 25%
Structure (SMILES): CCc1c2c(nc3ccc(O)cc13)-c1cc3c(c(=O)n1C2)COC(=O)[C@]3(O)CC [7-ETHYL-10-HYDROXYCAMPTOTHECIN]
